From PubChem BioAssay AID248 (DTP/NCI, 2004) come the findings set out here.

The test system of this test is L1210 leukemia ip in BDF1 mice, survival T/C. Kind of test: NCI In Vivo Anticancer Drug Screen. Data for tumor model L1210 Leukemia (intraperitoneal) in B6D2F1 (BDF1) mice. Particulars: endpoint: mean survival time, higher = longer survival. An outline of the steps: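 Transplanted-tumor mice were given test agent; controls received vehicle only. Survival readings from the two groups were divided (treated over control).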

[1] abbreviates: dose: 100.0 mg/kg/injection, schedule: Q01DX001 (ip), vehicle: carboxymethylcellulose (CMC).
The mark [2] stands for this setting: dose: 200.0 mg/kg/injection, schedule: Q01DX001 (ip), vehicle: carboxymethylcellulose (CMC).
[3] abbreviates: dose: 400.0 mg/kg/injection, schedule: Q01DX001 (ip), vehicle: carboxymethylcellulose (CMC).
[4] abbreviates: dose: 100.0 mg/kg/injection, schedule: Q01DX009 (ip), vehicle: Klucel (hydroxypropylcellulose) (HPC).
The mark [5] stands for this setting: dose: 200.0 mg/kg/injection, schedule: Q01DX009 (ip), vehicle: Klucel (hydroxypropylcellulose) (HPC).
The mark [6] stands for this setting: dose: 400.0 mg/kg/injection, schedule: Q01DX009 (ip), vehicle: Klucel (hydroxypropylcellulose) (HPC).
Setting [7] is: dose: 12.5 mg/kg/injection, schedule: Q01DX009 (ip), vehicle: Klucel (hydroxypropylcellulose) (HPC).
[8] abbreviates: dose: 100.0 mg/kg/injection, schedule: Q04DX003 (ip), vehicle: Klucel (hydroxypropylcellulose) (HPC).
The mark [9] stands for this setting: dose: 200.0 mg/kg/injection, schedule: Q04DX003 (ip), vehicle: Klucel (hydroxypropylcellulose) (HPC).
The mark [10] stands for this setting: dose: 400.0 mg/kg/injection, schedule: Q04DX003 (ip), vehicle: Klucel (hydroxypropylcellulose) (HPC).
The mark [11] stands for this setting: dose: 50.0 mg/kg/injection, schedule: Q01DX009 (ip), vehicle: saline with Tween-80.
The mark [12] stands for this setting: dose: 100.0 mg/kg/injection, schedule: Q01DX009 (ip), vehicle: saline with Tween-80.
Setting [13] is: dose: 100.0 mg/kg/injection, schedule: Q01DX001 (ip), vehicle: Klucel (hydroxypropylcellulose) (HPC).
The mark [14] stands for this setting: dose: 200.0 mg/kg/injection, schedule: Q01DX001 (ip), vehicle: Klucel (hydroxypropylcellulose) (HPC).

Several values for one entry are separate records, joined by “and”; a condition that tells them apart may be missing. Identical values can stand only once. Inconclusive results and toxic doses are left out.

Turning to `CCOC(=O)C1=CC2(c3ccccc3)CC1(c1ccccc1)C(c1ccccc1)=C2c1ccccc1` (stereo not given), the T/C (dose: 50.0 mg/kg/injection, schedule: Q01DX001 (ip), vehicle: carboxymethylcellulose (CMC)) is 97 % of control; the T/C under setting [1] is 92 % of control; the T/C under setting [2] was 94 % of control; the T/C under setting [3] was 89 % of control.

Turning to `NC(N)=NC(N)=Nc1ccccc1-c1ccccc1`, the T/C by setting is: under setting [4], 111 % of control; under setting [5], 103 % of control; under setting [6], 86 % of control.

As for `Cc1ccnc(NS(=O)(=O)c2ccc(N=Nc3nc4[nH]c(N)nc(=S)c4[nH]3)cc2)n1`, the T/C (dose: 1.56 mg/kg/injection, schedule: Q01DX009 (ip), vehicle: Klucel (hydroxypropylcellulose) (HPC)) was 230 % of control; the T/C under setting [7] is 94 % of control and 108 % of control; the T/C (dose: 25.0 mg/kg/injection, schedule: Q04DX003 (ip), vehicle: Klucel (hydroxypropylcellulose) (HPC)) is 162 % of control and 180 % of control; the T/C (dose: 50.0 mg/kg/injection, schedule: Q04DX003 (ip), vehicle: Klucel (hydroxypropylcellulose) (HPC)) was 173 % of control and 182 % of control and 192 % of control.

As to `CCN(CC)c1ccc(Cc2ccc(N(CC)CC)cc2Br)c(Br)c1`, the T/C is 100 % of control under setting [4]; 96 % of control under setting [8]; 105 % of control under setting [5]; 104 % of control under setting [9]; 107 % of control under setting [6]; 94 % of control under setting [10].

Consider `O=C(Nc1cc(Cl)c(Cl)cc1NC(=O)C(Cl)(Cl)Cl)C(Cl)(Cl)Cl`, for which the T/C by setting is: (dose: 5.0 mg/kg/injection, schedule: Q01DX001 (ip), vehicle: other) 97 % of control; (dose: 10.0 mg/kg/injection, schedule: Q01DX001 (ip), vehicle: other) 100 % of control.

For the compound `CCCC[S][Hg][I]`, the T/C reads like this: (dose: 3.12 mg/kg/injection, schedule: Q01DX009 (ip), vehicle: Klucel (hydroxypropylcellulose) (HPC)) 98 % of control; (dose: 6.25 mg/kg/injection, schedule: Q01DX009 (ip), vehicle: Klucel (hydroxypropylcellulose) (HPC)) 98 % of control; under setting [7], 110 % of control.

`CN(Cc1cnc2nc(N)nc(N)c2n1)c1ccc(C(=O)NC(CCC(=O)O)C(=O)O)cc1Cl` (stereo not given): the T/C (dose: 1.25 mg/kg/injection, schedule: Q01DX001 (ip), vehicle: saline) is 114 % of control; the T/C (dose: 2.0 mg/kg/injection, schedule: Q01DX015 (ip), vehicle: saline) is 291 % of control; the T/C (dose: 2.5 mg/kg/injection, schedule: Q01DX001 (ip), vehicle: saline) was 114 % of control; the T/C (dose: 5.0 mg/kg/injection, schedule: Q01DX001 (ip), vehicle: saline) was 118 % of control; the T/C (dose: 7.5 mg/kg/injection, schedule: Q01DX015 (ip), vehicle: saline) was 166 % of control.

On to `C[C@]1(O)CC[C@H]2[C@@H]3CC[C@@H]4CC(=O)CC[C@]4(C)[C@@]3(F)C(=O)C[C@@]21C`, for which the T/C reads like this: (dose: 50.0 mg/kg/injection, schedule: Q01DX Z (sc), vehicle: steriod suspending solution) 96 % of control; (dose: 250.0 mg/kg/injection, schedule: Q01DX Z (sc), vehicle: steriod suspending solution) 101 % of control; (dose: 500.0 mg/kg/injection, schedule: Q01DX Z (sc), vehicle: steriod suspending solution) 98 % of control.

As to `CC(=O)OC1CC2CC1C1C=CCC21` (stereo not given), the T/C was 88 % of control under setting [11]; 86 % of control under setting [12]; 94 % of control (dose: 100.0 mg/kg/injection, schedule: Q04DX003 (ip), vehicle: saline sonified); 89 % of control (dose: 200.0 mg/kg/injection, schedule: Q04DX003 (ip), vehicle: saline sonified).

On to `CN(C)C(=O)c1ccccc1O`, for which the T/C by setting is: under setting [4], 100 % of control; under setting [5], 90 % of control; under setting [6], 90 % of control.

For the compound `C1CN1P1(N2CC2)=NP(N2CC2)(N2CC2)=NP(N2CC2)(N2CC2)=N1`, the T/C was 159 % of control (dose: 10.0 mg/kg/injection, schedule: Q01DX009 (ip), vehicle: saline); 104 % of control (dose: 20.0 mg/kg/injection, schedule: Q01DX009 (ip), vehicle: saline); 162 % of control (dose: 75.0 mg/kg/injection, schedule: Q01DX001 (ip), vehicle: saline).

`OC(Cc1cnc2ccccc2n1)C(Cl)(Cl)Cl` (stereo not given): the T/C under setting [12] is 102 % of control; the T/C under setting [8] is 90 % of control; the T/C (dose: 200.0 mg/kg/injection, schedule: Q01DX009 (ip), vehicle: saline with Tween-80) was 97 % of control; the T/C under setting [9] is 95 % of control; the T/C (dose: 400.0 mg/kg/injection, schedule: Q01DX009 (ip), vehicle: saline with Tween-80) was 94 % of control; the T/C under setting [10] was 108 % of control.

For the compound `COC(=O)C(Cc1ccc(C)cc1)N1CCCCC1` (stereo not given), the T/C is, setting by setting: under setting [1], 101 % of control; under setting [2], 101 % of control; under setting [3], 98 % of control.

For `CC(C)Cc1c(N)nc(=O)[nH]c1C(=O)O`, the T/C by setting is: (dose: 75.0 mg/kg/injection, schedule: Q01DX009 (ip), vehicle: Klucel (hydroxypropylcellulose) (HPC)) 95 % of control; under setting [13], 96 % of control; (dose: 150.0 mg/kg/injection, schedule: Q01DX009 (ip), vehicle: Klucel (hydroxypropylcellulose) (HPC)) 98 % of control; under setting [14], 100 % of control; (dose: 300.0 mg/kg/injection, schedule: Q01DX009 (ip), vehicle: Klucel (hydroxypropylcellulose) (HPC)) 101 % of control; (dose: 400.0 mg/kg/injection, schedule: Q01DX001 (ip), vehicle: Klucel (hydroxypropylcellulose) (HPC)) 100 % of control.

`CCCCCC[P+](c1ccccc1)(c1ccccc1)c1ccccc1`: the T/C by setting is: (dose: 6.25 mg/kg/injection, schedule: Q01DX009 (ip), vehicle: saline) 99 % of control; (dose: 6.25 mg/kg/injection, schedule: Q04DX003 (ip), vehicle: saline) 101 % of control; (dose: 12.5 mg/kg/injection, schedule: Q01DX009 (ip), vehicle: saline) 107 % of control; (dose: 12.5 mg/kg/injection, schedule: Q04DX003 (ip), vehicle: saline) 100 % of control; (dose: 25.0 mg/kg/injection, schedule: Q01DX009 (ip), vehicle: saline) 98 % of control; (dose: 25.0 mg/kg/injection, schedule: Q04DX003 (ip), vehicle: saline) 103 % of control.

For the compound `CCN(CC)CCNc1ccc([N+](=O)[O-])cc1[N+](=O)[O-]`, the T/C runs as follows: under setting [11], 88 % of control; under setting [13], 103 % of control; under setting [12], 102 % of control; under setting [14], 103 % of control.

Regarding `COC(=O)c1n[nH]c(C2OCC3OC(C)(C)OC32)c1Br` (stereo not given), the T/C was 100 % of control (dose: 100.0 mg/kg/injection, schedule: Q01DX005 (ip), vehicle: saline) and 91 % of control (dose: 200.0 mg/kg/injection, schedule: Q01DX005 (ip), vehicle: saline).

As for `CCCCCCc1cc2ccccc2cc1CCCC`, the T/C is, setting by setting: (dose: 100.0 mg/kg/injection, schedule: Q01DX001 (ip), vehicle: saline) 102 % of control; (dose: 200.0 mg/kg/injection, schedule: Q01DX001 (ip), vehicle: saline) 100 % of control; (dose: 400.0 mg/kg/injection, schedule: Q01DX001 (ip), vehicle: saline) 97 % of control.
